Where a name gives a salt, the structure may show the parent alone.
Experiments:
P. aeruginosa UFR47 = assay: MIC of ceftazidime alone and in combination with compounds (synergy), broth microdilution; type: cell-based; conditions: MIC of ceftazidime with compound fixed at 4 μg/mL; strain UFR47 (VIM-1)
K. pneumoniae 200047 [1] = assay: as above; type: cell-based; conditions: MIC of ceftazidime with compound fixed at 4 μg/mL; strain 200047 (TEM-1, SHV-32, CTX-M-15, OXA-1)
K. pneumoniae 6299 [2] = assay: microbe, parasite or virus in culture; type: cell-based; conditions: Klebsiella pneumoniae, 6299, read-out: MIC compounds of the invention alone
Method: (§1) Compounds of the present invention were assessed against genotyped bacterial strains alone or in combination with the β-lactam ceftazidime (CAZ). […] Briefly, compounds alone according to the invention were prepared in DMSO and spotted (2 μL each) on sterile polystyrene plates (Corning, 3788). […] Log phase bacterial suspensions were adjusted to a final density of 5×10^5 cfu/mL in cation-adjusted Mueller-Hinton broth (Becton-Dickinson) and added to each well (98 μL). Microplates were incubated for 16-20 h at 35° C. in ambient air. The MIC of the compounds was defined as the lowest concentration of said compounds that prevented bacterial growth as read by visual inspection.

P. aeruginosa CIP105250 [3] = assay: microbe, parasite or virus in culture; type: cell-based; conditions: Pseudomonas aeruginosa, CIP105250, read-out: MIC compounds of the invention alone
Method: as §1

E. coli 131119 [4] = assay: microbe, parasite or virus in culture; type: cell-based; conditions: Escherichia coli, 131119, read-out: MIC compounds of the invention alone
Method: as §1

K. pneumoniae BAA-1898 [5] = assay: microbe, parasite or virus in culture; type: cell-based; conditions: Klebsiella pneumoniae, BAA1898, read-out: MIC compounds of the invention alone
Method: as §1

C. murliniae 210102 = assay: MIC of compounds alone, broth microdilution; type: cell-based; conditions: strain 210102 (VIM-4); read-out: MIC compounds of the invention alone
Summary of the method: (§2)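 Broth microdilution, CAMHB, 5×10^5 cfu/mL log-phase inoculum; cpds alone or + ceftazidime; 16-20 h, 35° C, ambient air; MIC = lowest conc. with no visible growth.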

P. aeruginosa UFR59 = assay: MIC of compounds alone, broth microdilution; type: cell-based; conditions: Pseudomonas aeruginosa; strain UFR59 (IMP-29); read-out: MIC compounds of the invention alone
Summary of the method: as §2

K. pneumoniae 200047 [6] = assay: MIC of compounds alone, broth microdilution; type: cell-based; conditions: Klebsiella pneumoniae, 200047, read-out: MIC compounds of the invention alone
Summary of the method: as §2

E. coli UFR61O = assay: MIC of ceftazidime alone and in combination with compounds (synergy), broth microdilution; type: cell-based; conditions: MIC of ceftazidime with compound fixed at 4 μg/mL; strain UFR61O (TEM-1, KPC-2)
E. cloacae UFR38 = assay: as above; type: cell-based; conditions: MIC of ceftazidime with compound fixed at 4 μg/mL; strain UFR38 (CTX-M-15, NDM-1)
E. cloacae UFR85 = assay: as above; type: cell-based; conditions: MIC of ceftazidime with compound fixed at 4 μg/mL; strain UFR85 (TEM-1, CTX-M-15, derepressed AmpC)
K. pneumoniae 6299 [7] = assay: as above; type: cell-based; conditions: MIC of ceftazidime with compound fixed at 4 μg/mL; strain 6299 (TEM-1, SHV-11, OXA-163)
Method: as §1

K. pneumoniae UFR77 = assay: as above; type: cell-based; conditions: MIC of ceftazidime with compound fixed at 4 μg/mL; strain UFR77 (CMY-2)
Method: as §1

E. coli RGN238 = assay: as above; type: cell-based; conditions: MIC of ceftazidime with compound fixed at 4 μg/mL; strain RGN238 (OXA-1)
Method: as §1

P. aeruginosa CIP105250 [8] = assay: as above; type: cell-based; conditions: MIC of ceftazidime with compound fixed at 4 μg/mL; strain CIP105250 (OXA-15)
Method: as §1

P. aeruginosa CIP107051 = assay: as above; type: cell-based; conditions: MIC of ceftazidime with compound fixed at 4 μg/mL; strain CIP107051 (TEM-24)
Method: as §1

E. coli UFR74 = assay: as above; type: cell-based; conditions: MIC of ceftazidime with compound fixed at 4 μg/mL; strain UFR74 (SHV-1, DHA-1)
Method: as §1

E. coli 131119 [9] = assay: as above; type: cell-based; conditions: MIC of ceftazidime with compound fixed at 4 μg/mL; strain 131119 (TEM-1, OXA-48)
Method: as §1

K. pneumoniae BAA-1898 [10] = assay: as above; type: cell-based; conditions: MIC of ceftazidime with compound fixed at 4 μg/mL; strain BAA-1898 (TEM-1, SHV-11, SHV-12, KPC-2)
Method: as §1

AmpC (P99) = biological target: T1, AmpC (P99) (Enterobacter cloacae, UniProt P05364); assay: biochemical
T1 construct: made in house; host or cells: E. coli expression vector
Method: (§3) Method 1: β-lactamase Inhibitory Activity, Determination of IC50 (Table 1)
(§4) Enzyme activity was monitored by spectrophotometric measurement of nitrocefin (NCF—TOKU-E, N005) hydrolysis at 485 nm, at room temperature and in assay buffer A: 100 mM Phosphate pH7, 2% glycerol and 0.1 mg/mL Bovine serum albumin (Sigma, B4287). Enzymes were cloned in E. coli expression vector, expressed and purified in house using classical procedures. To a transparent polystyrene plate (Corning, 3628) were added in each well 5 μL DMSO or inhibitor dilutions in DMSO and 80 μL enzyme in buffer A. Plates were immediately read at 485 nm in a microplate spectrophotometer (BioTek, PowerWave HT) to enable background subtraction. After 30 min of pre-incubation at room temperature, 15 μL of NCF (200 μM final) were finally added in each well. Final enzyme concentrations were 0.1 nM (TEM-1), 0.075 nM (SHV-1), 0.4 nM (CTX-M-15), 1 nM (KPC-2), 0.2 nM (P99 AmpC), 0.2 nM (CMY-37), 0.4 nM (AmpC P. aeruginosa), 0.2 nM (OXA-1), 1.2 nM (OXA-11), 0.4 nM (OXA-15) and 0.3 nM (OXA-48). After 20 min incubation at room temperature, plates were once again read at 485 nm. Enzyme activity was obtained by subtracting the final signal by the background, and was converted to enzyme inhibition using non inhibited wells. IC50 curves were fitted to a classical Langmuir equilibrium model with Hill slope using XLFIT (IDBS).

OXA-15 = biological target: T2, OXA-15 (Pseudomonas aeruginosa, UniProt Q51574); assay: biochemical
T2 construct: made in house; host or cells: E. coli expression vector
Method: as §3, §4

T1 sequence (P05364 21-381): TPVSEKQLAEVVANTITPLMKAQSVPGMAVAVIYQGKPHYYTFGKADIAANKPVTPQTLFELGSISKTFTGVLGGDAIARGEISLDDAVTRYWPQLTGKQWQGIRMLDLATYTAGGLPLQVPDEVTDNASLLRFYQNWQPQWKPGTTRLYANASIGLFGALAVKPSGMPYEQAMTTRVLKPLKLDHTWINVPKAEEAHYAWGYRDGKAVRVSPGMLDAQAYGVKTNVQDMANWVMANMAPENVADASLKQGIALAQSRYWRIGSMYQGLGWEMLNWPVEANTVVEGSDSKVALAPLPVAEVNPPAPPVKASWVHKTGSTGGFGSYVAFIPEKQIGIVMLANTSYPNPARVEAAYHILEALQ
T2 sequence (Q51574 22-275): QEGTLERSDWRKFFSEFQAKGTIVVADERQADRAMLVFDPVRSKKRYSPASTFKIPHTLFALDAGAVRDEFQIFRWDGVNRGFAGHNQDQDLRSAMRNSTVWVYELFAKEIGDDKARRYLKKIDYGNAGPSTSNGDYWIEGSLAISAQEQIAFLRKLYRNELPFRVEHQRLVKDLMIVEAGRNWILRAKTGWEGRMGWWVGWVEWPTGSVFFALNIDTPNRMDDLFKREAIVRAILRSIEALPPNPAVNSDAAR

Structure (SMILES)	MIC, combination of CAZ and compounds of the invention at 4 μg/mL (P. aeruginosa UFR47)	MIC, combination of CAZ and compounds of the invention at 4 μg/mL (K. pneumoniae 200047 [1])	MIC (K. pneumoniae 6299 [2])	MIC (P. aeruginosa CIP105250 [3])	MIC (E. coli 131119 [4])	MIC (K. pneumoniae BAA-1898 [5])	MIC (C. murliniae 210102)	MIC (P. aeruginosa UFR59)	MIC, combination of CAZ and compounds of the invention at 4 μg/mL (E. coli UFR61O)	MIC, combination of CAZ and compounds of the invention at 4 μg/mL (E. cloacae UFR85)	MIC, combination of CAZ and compounds of the invention at 4 μg/mL (K. pneumoniae 6299 [7])	MIC, combination of CAZ and compounds of the invention at 4 μg/mL (K. pneumoniae UFR77)	MIC, combination of CAZ and compounds of the invention at 4 μg/mL (E. coli RGN238)	MIC, combination of CAZ and compounds of the invention at 4 μg/mL (P. aeruginosa CIP105250 [8])	MIC, combination of CAZ and compounds of the invention at 4 μg/mL (P. aeruginosa CIP107051)	MIC, combination of CAZ and compounds of the invention at 4 μg/mL (E. coli UFR74)	MIC, combination of CAZ and compounds of the invention at 4 μg/mL (E. coli 131119 [9])	MIC, combination of CAZ and compounds of the invention at 4 μg/mL (K. pneumoniae BAA-1898 [10])	IC50 (AmpC (P99))	IC50 (OXA-15)	also measured
NC[C@@H]1CC(=NOCC(N)=O)[C@@H]2CN1C(=O)N2OS(=O)(=O)O (mixture of isomers) [Example 5, sodium and 2,2,2-trifluroacetate [(2S,5S)-4-(2-amino-2-oxo-ethoxy)imino-2-(azaniumylmethyl)-7-oxo-1,6-diazabicyclo[3.2.1]octan-6-yl] sulfate]	<0.25 µg/mL	≤0.25 µg/mL	> 32 µg/mL	32 µg/mL	> 32 µg/mL	> 32 µg/mL	> 32 µg/mL	4 µg/mL	<0.25 µg/mL	≤0.25 µg/mL	0.25 µg/mL	2 µg/mL	≤0.25 µg/mL	≤0.25 µg/mL	<0.25 µg/mL	1 µg/mL	<0.25 µg/mL	0.5 µg/mL	11000 nM	8 nM	MIC (K. pneumoniae 200047 [6]): > 32 µg/mL; MIC, combination of CAZ and compounds of the invention at 4 μg/mL (E. cloacae UFR38): <0.25 µg/mL
NC[C@@H]1CC(=O)[C@@H]2CN1C(=O)N2OS(=O)(=O)O [Example 6, 2,2,2-trifluroacetate and sodium [(2S,5S)-2-(azaniumylmethyl)-4,7-dioxo-1,6-diazabicyclo[3.2.1]octan-6-yl] sulfate]	≤0.25 µg/mL	1 µg/mL	> 32 µg/mL	16 µg/mL	2 µg/mL	> 32 µg/mL	> 32 µg/mL	16 µg/mL	1 µg/mL	≤0.25 µg/mL	2 µg/mL	2 µg/mL	≤0.25 µg/mL	2 µg/mL	0.125 µg/mL	0.5 µg/mL	≤0.25 µg/mL	1 µg/mL	6400 nM	68 nM	MIC (K. pneumoniae 200047 [6]): > 32 µg/mL; MIC, combination of CAZ and compounds of the invention at 4 μg/mL (E. cloacae UFR38): <0.25 µg/mL
CNC(=O)CON=C1C[C@@H](C(N)=O)N2C[C@@H]1N(OS(=O)(=O)[O-])C2=O.[Na+] (mixture of isomers) [Example 2, sodium [(2S,5S)-2-carbamoyl-4-[2-(methylamino)-2-oxo-ethoxy]imino-7-oxo-1,6-diazabicyclo[3.2.1]octan-6-yl] sulfate]		0.5 µg/mL	> 32 µg/mL	> 32 µg/mL	8 µg/mL	> 32 µg/mL			0.5 µg/mL	1 µg/mL	2 µg/mL	32 µg/mL	≤0.25 µg/mL	64 µg/mL	16 µg/mL	0.5 µg/mL	≤0.25 µg/mL	64 µg/mL	3.2 nM	0.84 nM	
